Read-outs that look alike come from different tables or passages of the source.
Key:
Pseudomonas aeruginosa [1] = assay: MIC (Table 3); assay type: cell-based; conditions: Pseudomonas aeruginosa strain 104; sodium salt
Excerpt: (§1) The minimum inhibitory concentrations obtained with Compound (I) and Compound (C) against the following organisms representing 6 genera are shown in Table 3.
(§2) Note: Compound (I) and Compound (C) were subjected to the test in the form of the sodium salt.

Staphylococcus aureus [2] = assay: MIC (Table 3); assay type: cell-based
Excerpt: as §1, §2

Proteus mirabilis = assay: MIC (Table 3); assay type: cell-based
Excerpt: as §1, §2

Escherichia coli [3] = assay: MIC (Table 3); assay type: cell-based
Excerpt: as §1, §2

Klebsiella pneumoniae [4] = assay: MIC (Table 3); assay type: cell-based; conditions: Klebsiella pneumoniae strain PCI602; sodium salt
Excerpt: as §1, §2

Proteus vulgaris = assay: MIC (Table 3); assay type: cell-based; conditions: Proteus vulgaris strain HX19; sodium salt
Excerpt: as §1, §2

[5] = Urinary excretion rate in rats after intramuscular administration (Table 8); assay type: in vivo, Wistar-HLA strain rats; conditions: rat, urine, im, 20 mg/kg, male rats, intramuscular 20 mg/kg, sodium salt
Experimental: The urinary excretion rates of Compound (I) and Compound (C) following an intramuscular administration of 20 mg/kg in male Wistar-HLA strain rats are shown in Table 8.
as §2

[6] = Serum level in mice after subcutaneous administration (Table 7); assay type: in vivo, ICR-SLC strain mice; conditions: mouse, sc, subcutaneous 50 mg/kg, sodium salt
Experimental: The peak serum concentrations of Compound (I) and Compound (C) in ICR strain mice following subcutaneous administration at 50 mg/kg are shown in Table 7.
Note: Compound (I) and Compound (C) were subjected to the test in the form of the sodium salt. For the test, three male ICR-SLC strain mice were used. The bioassay was carried out according to the disc method using Bacillus subtilis.

Pseudomonas aeruginosa [7] = assay: Intraperitoneal infection in mice, median protective dose (Table 2); assay type: in vivo; conditions: subcutaneous; for ED50: sc, 1 and 4 hours after infection, sodium salt, read-out: PD50
Experimental: (§3) Note: Compound (I), Compound (A) and Compound (B) were subjected to the test in the form of the sodium salt. For each test, eight male ICR-SLC strain mice were used at each dose level. MIC was determined by the nutrient broth dilution method. In determination of PD50, subcutaneous treatment was carried out twice, i.e. 1 and 4 hours after infection.

Escherichia coli [8] = assay: as above; assay type: in vivo; conditions: sc, subcutaneous, 1 and 4 hours after infection, sodium salt, read-out: PD50
Experimental: as §3

Klebsiella pneumoniae [9] = assay: as above; assay type: in vivo; conditions: subcutaneous; for ED50: sc, 1 and 4 hours after infection, sodium salt, read-out: PD50
Experimental: as §3

[10] = pain when administered parenterally; assay type: in vivo; conditions: relative to said penicillins
[11] = Acute toxicity in mice, intraperitoneal (Table 9); conditions: mouse, in vivo, ip
Excerpt: The acute toxicity of Compound (I) and Compound (C) in ICR strain mice when administered by intraperitoneal route are shown in Table 9.
as §2

Staphylococcus aureus [12] = assay: Median MIC, clinical isolates, agar-plate dilution (Table 4); assay type: cell-based
Experimental: (§4) Note: Compound (I) and Compound (C) were subjected to the test in the form of the sodium salt. MIC was determined using the agar-plate dilution method.

Streptococcus faecalis [13] = assay: as above; assay type: cell-based
Experimental: as §4

Pseudomonas aeruginosa [14] = assay: Intraperitoneal infection in mice, median protective dose (Table 5); assay type: in vivo
Experimental: (§5) The relative activities of Compound (I) and Compound (C) against various intraperitioneal infections in mice evaluated by the minimum inhibitory concentrations and the means median protective doses (subcutaneously administered) are shown in Table 5.
(§6) Note: Compound (I) and Compound (C) were subjected to the test in the form of the sodium salt. For each test, five male ICR-SLC strain mice were used at each dose level. MIC was determined by the nutrient broth dilution method. In determination of PD50, subsutaneous treatment was carried out three times, i.e. 1, 3 and 5 hours after infection.

Staphylococcus aureus [15] = assay: as above; assay type: in vivo
Experimental: as §5, §6

Klebsiella pneumoniae [16] = assay: as above; assay type: in vivo
Experimental: as §5, §6

Streptococcus faecalis [17] = assay: as above; assay type: in vivo
Experimental: as §5, §6

Pseudomonas aeruginosa [18] = assay: MIC, nutrient broth dilution (Table 5); assay type: cell-based; conditions: Pseudomonas aeruginosa strain TS, sodium salt
Experimental: as §5, §6

Staphylococcus aureus [19] = assay: MIC, nutrient broth dilution (Table 5); assay type: cell-based; conditions: Staphylococcus aureus strain A24, sodium salt
Experimental: as §5, §6

Klebsiella pneumoniae [20] = assay: MIC, nutrient broth dilution (Table 5); assay type: cell-based; conditions: Klebsiella pneumoniae strain No. 1, sodium salt
Experimental: as §5, §6

Streptococcus faecalis [21] = assay: MIC, nutrient broth dilution (Table 5); assay type: cell-based; conditions: Enterococcus faecalis, Streptococcus faecalis strain F10, sodium salt
Experimental: as §5, §6

Pseudomonas aeruginosa [22] = assay: MIC, nutrient broth dilution (Table 2); assay type: cell-based
Experimental: as §3

Escherichia coli [23] = assay: MIC, nutrient broth dilution (Table 2); assay type: cell-based
Experimental: as §3

Klebsiella pneumoniae [24] = assay: MIC, nutrient broth dilution (Table 2); assay type: cell-based
Experimental: as §3

[25] = Protein-binding rate in human serum (Table 6); assay type: in vitro ADME; conditions: for fraction unbound: human, serum, sodium salt
Excerpt: The following data are related to the pharmacokinetic profiles of Compound (I) compared with Compound (C).
as §2

[26] = Escherichia coli strain NIHJ, sodium salt

In the case of CC1(C)S[C@@H]2[C@H](NC(=O)[C@H](NC(=O)c3ccnnc3O)c3ccc(O)cc3)C(=O)N2[C@H]1C(=O)O [Compound (I), 6-[D-2-(3-hydroxypyridazine-4-carbonamido)-2-(p-hydroxyphenyl)acetamido]penicillanic acid], the MIC (Pseudomonas aeruginosa [1]) is reported as 1.56 µg/mL, the “antibacterial activity relative to Compound (C)” value (Staphylococcus aureus [2]; Staphylococcus aureus) is reported as “superior” and the MIC (Staphylococcus aureus [2]; Staphylococcus aureus strain 209P, sodium salt) is reported as 0.39 µg/mL. For the same molecule, the “antibacterial activity relative to Compound (C)” value (Proteus mirabilis; Proteus mirabilis) was “inferior”, the MIC (Proteus mirabilis; Proteus mirabilis strain GN2425, sodium salt) was 6.25 µg/mL and the “antibacterial activity relative to Compound (C)” value (Escherichia coli [3]; Escherichia coli) was “inferior”. For the same molecule, the MIC (Escherichia coli [3]; [26]) was 6.25 µg/mL, the MIC (Klebsiella pneumoniae [4]) was 12.5 µg/mL and the MIC (Proteus vulgaris) was 0.025 µg/mL. The dose excreted at 6 h ([5]; 0-6 hr.) was 54%, the dose excreted at 24 h ([5]; 0-24 hr.) was 55% and the dose excreted at 24 h ([5]; 6-24 hr.) was 1%. The concentration at 0.5 h ([6]; 1/2 hr.) was 35000 ng/mL, the concentration at 0.25 h ([6]; 1/4 hr.) was 69000 ng/mL and the concentration at 1 h ([6]; 1 hr.) was 14000 ng/mL. The concentration at 2 h ([6]; 2 hr.) was 3000 ng/mL, the “PD50 relative to Compound (A) and Compound (B)” value (Pseudomonas aeruginosa [7]; mice) was “markedly superior” and the ED50 (Pseudomonas aeruginosa [7]; P. aeruginosa strain NC-5, male ICR-SLC mice) was 22 mg/kg. It also gave an ED50 (Pseudomonas aeruginosa [7]; P. aeruginosa strain T, male ICR-SLC mice) of 35 mg/kg, an ED50 (Escherichia coli [8]; E. coli strain NIHJ, male ICR-SLC mice) of 3.2 mg/kg and an ED50 (Escherichia coli [8]; E. coli strain No. 37, male ICR-SLC mice) of 31 mg/kg. For the same molecule, the “PD50 relative to Compound (A) and Compound (B)” value (Klebsiella pneumoniae [9]; mice) was “markedly superior”, the ED50 (Klebsiella pneumoniae [9]; K. pneumoniae strain No. 1, male ICR-SLC mice) was 25 mg/kg and the ED50 (Klebsiella pneumoniae [9]; K. pneumoniae strain No. 6, male ICR-SLC mice) was 36 mg/kg. For the same molecule, the ED50 (Klebsiella pneumoniae [9]; K. pneumoniae strain No. 20, male ICR-SLC mice) was 31 mg/kg, the “pain when administered parenterally” value [10] was “weaker pain” and the LD50 [11] was 7100 mg/kg. The MIC50 (Staphylococcus aureus [12]; 37 strains, agar-plate dilution, sodium salt, read-out: Median minimum inhibitory concentration) was 15 µg/mL, the “antibacterial activity relative to Compound (C)” value (Staphylococcus aureus [12]; clinical isolates) was “superior” and the MIC50 (Streptococcus faecalis [13]; Enterococcus faecalis, 23 strains, agar-plate dilution, sodium salt, read-out: Median minimum inhibitory concentration) was 2 µg/mL. The “antibacterial activity relative to Compound (C)” value (Streptococcus faecalis [13]; clinical isolates) was “superior”, the “PD50 relative to Compound (C)” value (Pseudomonas aeruginosa [14]; mice, subcutaneous) was “inferior” and the ED50 (Pseudomonas aeruginosa [14]; sc, P. aeruginosa strain TS, male ICR-SLC mice, subcutaneous, 1, 3 and 5 hours after infection, sodium salt, read-out: PD50) was 22 mg/kg. The “PD50 relative to Compound (C)” value (Staphylococcus aureus [15]; mice, subcutaneous) was “markedly superior”, the ED50 (Staphylococcus aureus [15]; sc, S. aureus strain A24, male ICR-SLC mice, subcutaneous, 1, 3 and 5 hours after infection, sodium salt, read-out: PD50) was 2 mg/kg and the “PD50 relative to Compound (C)” value (Klebsiella pneumoniae [16]; mice, subcutaneous) was “approximately equal”. The ED50 (Klebsiella pneumoniae [16]; sc, K. pneumoniae strain No. 1, male ICR-SLC mice, subcutaneous, 1, 3 and 5 hours after infection, sodium salt, read-out: PD50) was 16 mg/kg, the ED50 (Streptococcus faecalis [17]; Enterococcus faecalis, sc, S. faecalis strain F10, male ICR-SLC mice, subcutaneous, 1, 3 and 5 hours after infection, sodium salt, read-out: PD50) was 1.1 mg/kg and the “PD50 relative to Compound (C)” value (Streptococcus faecalis [17]; Streptococcus faecalis, mice, subcutaneous) was “markedly superior”. It also gave an MIC (Pseudomonas aeruginosa [18]) of 6.25 µg/mL, an MIC (Staphylococcus aureus [19]) of 0.39 µg/mL and an MIC (Klebsiella pneumoniae [20]) of 6.25 µg/mL. It also gave an MIC (Streptococcus faecalis [21]) of 1.56 µg/mL, an MIC (Pseudomonas aeruginosa [22]; Pseudomonas aeruginosa strain NC-5, sodium salt) of 12.5 µg/mL and an MIC (Pseudomonas aeruginosa [22]; Pseudomonas aeruginosa strain T, sodium salt) of 25 µg/mL. The MIC (Escherichia coli [23]; [26]) was 6.25 µg/mL, the MIC (Escherichia coli [23]; Escherichia coli strain No. 37, sodium salt) was 12.5 µg/mL and the MIC (Klebsiella pneumoniae [24]; Klebsiella pneumoniae strain No. 1, sodium salt) was 6.25 µg/mL. For the same molecule, the MIC (Klebsiella pneumoniae [24]; Klebsiella pneumoniae strain No. 6, sodium salt) was 25 µg/mL, the MIC (Klebsiella pneumoniae [24]; Klebsiella pneumoniae strain No. 20, sodium salt) was 12.5 µg/mL and the “protein-binding rate relative to Compound (C)” value ([25]; human serum) was “lower protein-binding rate”. It also gave a fraction unbound ([25]; Ultracentrifugation method) of 0.4 and a fraction unbound ([25]; Ultrafiltration method) of 0.42.

— patent publication US4046904A, “Novel penicillin, and its preparation and use” (Sumitomo Chemical Company, Limited, priority 1975, dated 1977)
